Experimental data from patent US20240398812A1 (Caraway Therapeutics, Inc., priority 2021, published 2024).

Columns and labels:
Assay type in all cases: cell-based
human TRPML1 = human TRPML1 (Homo sapiens, UniProt Q9GZU1); assay: Fluorescent TRPML1 assay (Fluo4-AM calcium fluorescence, HEK-293 Trex cells)
Procedure, shortened: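 Tet-inducible HEK-293 Trex cells stably expressing surface-targeted mutant human TRPML1, induced with 0.5 ug/mL doxycycline overnight, loaded with Fluo4-AM and suspended in Ringer's with 10 mM calcium. Compounds tested from 20 μM to 6 nM final, half-log steps, in triplicate; fluorescence (ex 480/em 540) normalised to plate controls, EC50 by non-linear regression.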

TRPML3 = biological target: T1, TRPML3 (Homo sapiens, UniProt Q8TDD5); assay: Fluorescent TRPML3 assay (as for TRPML1)
T1 construct: expressed in transfected cells
T1 sequence (Q8TDD5 1-553): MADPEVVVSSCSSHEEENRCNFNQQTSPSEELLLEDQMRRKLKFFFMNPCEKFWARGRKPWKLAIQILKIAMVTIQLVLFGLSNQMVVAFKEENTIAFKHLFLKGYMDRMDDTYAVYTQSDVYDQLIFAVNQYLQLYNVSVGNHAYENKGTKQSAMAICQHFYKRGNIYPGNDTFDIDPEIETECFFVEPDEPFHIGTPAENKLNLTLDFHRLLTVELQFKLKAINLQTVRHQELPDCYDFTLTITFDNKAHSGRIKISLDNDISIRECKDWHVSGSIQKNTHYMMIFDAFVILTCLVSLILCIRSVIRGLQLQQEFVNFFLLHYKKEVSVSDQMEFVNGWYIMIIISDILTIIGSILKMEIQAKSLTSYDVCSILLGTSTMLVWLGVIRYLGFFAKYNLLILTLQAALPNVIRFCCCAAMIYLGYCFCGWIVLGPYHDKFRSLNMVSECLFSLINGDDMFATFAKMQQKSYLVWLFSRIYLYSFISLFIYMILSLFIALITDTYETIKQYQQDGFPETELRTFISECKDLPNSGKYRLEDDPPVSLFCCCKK
Procedure, shortened: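 HEK-293 Trex cells with tet-inducible (0.5 ug/mL doxycycline, overnight) surface-targeted mutant channel, Fluo4-AM loaded, suspended in Ringer's with 10 mM calcium. Compounds tested 20 µM to 6 nM final, half-log steps, triplicate; fluorescence at ex 480/em 540 nm. EC50 by non-linear regression of percent activity versus plate controls.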

TRPML2 = biological target: T2, TRPML2 (Homo sapiens, UniProt Q8IZK6); assay: Fluorescent TRPML2 assay (as for TRPML1)
T2 construct: expressed in transfected cells
T2 sequence (Q8IZK6 1-566): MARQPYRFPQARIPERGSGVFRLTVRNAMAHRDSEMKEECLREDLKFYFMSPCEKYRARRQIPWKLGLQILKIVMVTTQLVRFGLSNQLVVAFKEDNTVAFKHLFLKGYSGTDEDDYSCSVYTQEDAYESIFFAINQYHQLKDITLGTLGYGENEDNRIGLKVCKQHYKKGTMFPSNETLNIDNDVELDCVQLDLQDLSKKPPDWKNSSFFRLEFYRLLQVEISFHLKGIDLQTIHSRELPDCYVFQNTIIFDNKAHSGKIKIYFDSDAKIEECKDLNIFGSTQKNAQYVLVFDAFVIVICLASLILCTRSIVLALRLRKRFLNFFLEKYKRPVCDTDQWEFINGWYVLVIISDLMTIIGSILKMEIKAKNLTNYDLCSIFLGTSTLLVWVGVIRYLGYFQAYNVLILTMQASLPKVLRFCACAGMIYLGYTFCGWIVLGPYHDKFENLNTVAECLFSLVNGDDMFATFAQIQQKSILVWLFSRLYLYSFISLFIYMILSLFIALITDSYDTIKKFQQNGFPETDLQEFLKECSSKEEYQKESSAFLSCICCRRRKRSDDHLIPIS
Experimental: HEK-293 Trex cells were stably transfected with a construct consisting of the human coding sequence for TRPML1 cloned into the tet-inducible plasmid pCDNA5 T/O. Mutations were introduced into the TRPML1 sequence to facilitate expression on the cell surface (Silvia Vergarajauregui, Rosa Puertollano Traffic. 2006 March; 7 (3): 337-353). Briefly, the cells are cultured in 150 mm round tissue culture dishes containing 20 mL of media. The day before the assay the cells are rinsed with DPBS —Ca—Mg and then treated briefly with Trypsin-EDTA. The Trypsin-EDTA is diluted with growth media, and cells are counted. 38×10^6 cells are re-plated into 150 mm round tissue culture dishes in media containing 0.5 ug/mL doxycycline to induce expression of hTRPML1.
The day of the experiment cells are lifted from the plates as above and collected by centrifugation. The cells are then suspended in dye loading buffer consisting of Ringer's solution supplemented with 0.1% Pluronic Acid and 1 micromolar Fluo4-AM dye. Cells are loaded for ˜60 minutes in the dark with occasional mixing. The cells are collected by centrifugation, the loading media aspirated, and the cells resuspended in 25 mL Ringer's solution and incubated ˜60 minutes in the dark. The cells are again collected by centrifugation, rinsed in Ringer's Solution and resuspended to 0.2×10^6 cells/mL in modified Ringer's solution containing 10 mM calcium.
Compounds are dissolved to a concentration of 10 millimolar with DMSO. Compound plates are created by dispensing compounds into 384 well black wall clear bottom plates (Greiner 781091). Positive and negative controls are included on each plate. Typically, different amounts of each compound are tested ranging from 100 nanoMoles (20 micromolar final concentration) decreasing in half-log steps to 31 picoMoles (6 nanomolar final concentration). Each concentration is typically tested in triplicate.
50 microliters of dye-loaded cells are dispensed into each well of the compound assay plate created above. The fluorescence in each well is then determined with an excitation wavelength of 480 nm and an emission wavelength of 540 nm using either a Molecular Devices SpectraMax multimode plate reader or a Hamamatsu FDSS/uCell plate imager.
The resulting fluorescence for each well is exported as an ascii file and loaded into our LIMS for analysis. The percent activity of each compound at each concentration is determined by comparison to the positive and negative control wells included in each plate.
Assays for TRPML2 and TRPML3 were performed as above for TRPML1, by substituting the appropriate TRPML2 or TRPML3 subtype for the TRPML1.
EC50 values were calculated using a non-linear regression of Prism. In the table, “A” indicates an EC50 of less than 100 nM, “B” indicates an EC50 range from 100 nM to 500 nM; “C” indicates an EC50 range from 500 nM to 2 μM; and “D” indicates an EC50 greater than 2 μM.

human TRPML1, sequence (Q9GZU1 whole entry L15A/L16A/L577A/L578A, form open): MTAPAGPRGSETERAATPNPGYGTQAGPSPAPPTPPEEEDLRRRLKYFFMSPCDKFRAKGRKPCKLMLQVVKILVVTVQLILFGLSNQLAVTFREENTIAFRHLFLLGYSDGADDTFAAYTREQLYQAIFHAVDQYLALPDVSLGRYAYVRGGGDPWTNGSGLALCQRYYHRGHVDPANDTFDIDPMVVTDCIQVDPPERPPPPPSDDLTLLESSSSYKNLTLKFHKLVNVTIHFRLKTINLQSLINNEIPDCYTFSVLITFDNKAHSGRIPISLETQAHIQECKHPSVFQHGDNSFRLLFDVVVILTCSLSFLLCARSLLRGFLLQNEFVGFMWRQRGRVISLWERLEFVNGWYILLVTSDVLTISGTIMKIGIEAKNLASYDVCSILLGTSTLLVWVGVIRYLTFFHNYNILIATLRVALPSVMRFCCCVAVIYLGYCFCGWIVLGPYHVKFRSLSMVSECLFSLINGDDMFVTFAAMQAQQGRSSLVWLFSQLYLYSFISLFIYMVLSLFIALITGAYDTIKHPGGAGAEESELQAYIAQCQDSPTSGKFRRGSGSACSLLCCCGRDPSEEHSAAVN

Row | SMILES | EC50 (human TRPML1; Table 3, compounds 201-283) [nM] | EC50 (TRPML3; Table 3, compounds 201-283) [nM] | EC50 (TRPML2; Table 3, compounds 201-283) [nM] | EC50 (human TRPML1; Table 3, compounds 101-177) [nM] | EC50 (TRPML3; Table 3, compounds 101-177) [nM] | EC50 (TRPML2; Table 3, compounds 101-177) [nM]
1 | C[C@@H]1CN(c2ncnc3c2c(C2CCC2)cn3-c2cccc(C(F)(F)F)c2)[C@@H](C)CN1C(=O)C(C)(C)C [Compound 261, 1-((2R,5S)-4-(5-cyclobutyl-7-(3-(trifluoromethyl)phenyl)-7H-pyrrolo[2,3-d]pyrimidin-4-yl)-2,5-dimethylpiperazin-1-yl)-2,2-dimethylpropan-1-one] | < 100 | 500 to 2000 | > 2000 |  |  | 
2 | C[C@@H]1CN(c2ncnc3c2c(C2CCC2)cn3-c2cccc(C(F)(F)F)c2)[C@@H](C)CN1C(=O)C(C)(C)C(F)(F)F [Compound 263, 1-((2R,5S)-4-(5-cyclobutyl-7-(3-(trifluoromethyl)phenyl)-7H-pyrrolo[2,3-d]pyrimidin-4-yl)-2,5-dimethylpiperazin-1-yl)-3,3,3-trifluoro-2,2-dimethylpropan-1-one] | 100 to 500 | < 100 | 500 to 2000 |  |  | 
3 | COC1(C(=O)N2C[C@H](C)N(c3ncnc4c3c(-c3ccccc3F)cn4-c3cc(C#N)ccn3)C[C@H]2C)CC1 [Compound 267, 2-(5-(2-fluorophenyl)-4-((2S,5R)-4-(1-methoxycyclopropane-1-carbonyl)-2,5-dimethylpiperazin-1-yl)-7H-pyrrolo [2,3-d]pyrimidin-7-yl)isonicotinonitrile] | < 100 | < 100 | 100 to 500 |  |  | 
4 | C[C@@H]1CN(c2ncnc3c2c(-c2ccccc2F)cn3-c2cc(C#N)ccn2)[C@@H](C)CN1C(=O)C1(F)CC1 [Compound 235, 2-(4-((2S,5R)-4-(1-fluorocyclopropane-1-carbonyl)-2,5-dimethylpiperazin-1-yl)-5-(2-fluorophenyl)-7H-pyrrolo[2,3-d]pyrimidin-7-yl)isonicotinonitrile] | < 100 | 500 to 2000 | 100 to 500 |  |  | 
5 | CC(C)C(=O)N1CCN(c2ncnc3c2c(-c2ccccc2)cn3-c2cc(C#N)ccn2)[C@@H](C)C1 [Compound 118, (S)-2-(4-(4-isobutyryl-2-methylpiperazin-1-yl)-5-phenyl-7H-pyrrolo[2,3-d]pyrimidin-7-yl)isonicotinonitrile] |  |  |  | < 100 | < 100 | 500 to 2000
6 | COC(C)(C)C(=O)N1C[C@H](C)N(c2ncnc3c2c(C(F)(F)F)cn3-c2cccc(F)c2)C[C@H]1C [Compound 223, 1-((2R,5S)-4-(7-(3-fluorophenyl)-5-(trifluoromethyl)-7H-pyrrolo[2,3-d]pyrimidin-4-yl)-2,5-dimethylpiperazin-1-yl)-2-methoxy-2-methylpropan-1-one] | < 100 | 100 to 500 | > 2000 |  |  | 
7 | C[C@@H]1CN(c2ncnc3c2c(C2CCC2)cn3-c2cc(C#N)ccn2)[C@@H](C)CN1C(=O)C(C)(C)C [Compound 237, 2-(5-cyclobutyl-4-((2S,5R)-2,5-dimethyl-4-pivaloylpiperazin-1-yl)-7H-pyrrolo[2,3-d]pyrimidin-7-yl)isonicotinonitrile] | 100 to 500 | 500 to 2000 | > 2000 |  |  | 
8 | C[C@H]1CN(C(=O)C(C)(C)C)CCN1c1ncnc2c1c(C1CC1)cn2-c1cccc(F)c1 [Compound 215, (S)-1-(4-(5-cyclopropyl-7-(3-fluorophenyl)-7H-pyrrolo[2,3-d]pyrimidin-4-yl)-3-methylpiperazin-1-yl)-2,2-dimethylpropan-1-one] | 100 to 500 | 500 to 2000 | 100 to 500 |  |  | 
9 | C[C@@H]1CN(c2ncnc3c2c(C2CC2)cn3-c2cc(C#N)ccn2)CCN1C(=O)C(C)(C)F [Compound 130, (R)-2-(5-cyclopropyl-4-(4-(2-fluoro-2-methylpropanoyl)-3-methylpiperazin-1-yl)-7H-pyrrolo[2,3-d]pyrimidin-7-yl)isonicotinonitrile] |  |  |  | < 100 | < 100 | 100 to 500
10 | C[C@@H]1CN(c2ncnc3c2c(N2CCC2)cn3-c2cc(C#N)ccn2)CCN1C(=O)C1(F)CC1 [Compound 270, (R)-2-(5-(azetidin-1-yl)-4-(4-(1-fluorocyclopropane-1-carbonyl)-3-methylpiperazin-1-yl)-7H-pyrrolo[2,3-d]pyrimidin-7-yl)isonicotinonitrile] | < 100 | < 100 | 100 to 500 |  |  | 
